Results: ChEMBL document CHEMBL1201862, “PubChem BioAssay data set” (2004)
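Growth conditions: 96-well plates. Treatment: test compound, 48 hours, 5 concentrations. Analysis: linear interpolation between bracketing concentrations; unreached endpoints set to highest concentration. GI50 is the concentration that inhibits growth by half.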 The source made the active and inactive calls. Cut-off read from the data, not from the text of the source: active = GI50 up to about 1.1 µM and inactive = higher.

Experiments:
Test in all cases: NCI-60 cell line screen, 48 h
SK-MEL-28 = system: SK-MEL-28
HT-29 = system: HT-29
NCI-H522 = system: NCI-H522
OVCAR-8 = system: OVCAR-8
PC-3 = system: PC-3
SN12C = system: SN12C
NCI/ADR-RES = system: NCI/ADR-RES
HOP-92 = system: HOP-92
DU-145 = system: DU-145
SNB-19 = system: SNB-19
SW-620 = system: SW-620
LOX IMVI = system: LOX IMVI
ACHN = system: ACHN
SF-268 = system: SF-268
OVCAR-5 = system: OVCAR-5
SK-MEL-2 = system: SK-MEL-2
HOP-62 = system: HOP-62
786-0 = system: 786-0
OVCAR-3 = system: OVCAR-3

Compound	GI50 (SK-MEL-28)	GI50 (HT-29)	GI50 (NCI-H522)	GI50 (OVCAR-8)	GI50 (PC-3)	GI50 (SN12C)	GI50 (NCI/ADR-RES)	GI50 (HOP-92)	GI50 (DU-145)	GI50 (SNB-19)	GI50 (SW-620)	GI50 (LOX IMVI)	GI50 (ACHN)	GI50 (SF-268)	GI50 (OVCAR-5)	GI50 (SK-MEL-2)	GI50 (HOP-62)	GI50 (786-0)	GI50 (OVCAR-3)
CCOC(=O)C1(CO)CSCCSC1	> 100 µM (inactive)	> 100 µM (inactive)	> 100 µM (inactive)	> 100 µM (inactive)	> 100 µM (inactive)	> 100 µM (inactive)	> 100 µM (inactive)	> 100 µM (inactive)	> 100 µM (inactive)	> 100 µM (inactive)	> 100 µM (inactive)	> 100 µM (inactive)	> 100 µM (inactive)	> 100 µM (inactive)	–	–	–	–	–
COc1cc(/C=c2\sc3n(c2=O)C(c2ccc(Cl)cc2)C2=C(CCCC2C)N=3)cc(OC)c1OC (stereo not drawn)	> 100 µM (inactive)	> 100 µM (inactive)	–	> 100 µM (inactive)	> 100 µM (inactive)	> 100 µM (inactive)	–	> 100 µM (inactive)	> 100 µM (inactive)	> 100 µM (inactive)	> 100 µM (inactive)	> 100 µM (inactive)	> 100 µM (inactive)	> 100 µM (inactive)	> 100 µM (inactive)	> 100 µM (inactive)	> 100 µM (inactive)	> 100 µM (inactive)	–
O/N=C1/CC2(N3CCOCC3)C3CC/C(=N\O)C2CC1(Cc1ccccc1)C3 (stereo not drawn)	> 100 µM (inactive)	95.9 µM (inactive)	> 100 µM (inactive)	> 100 µM (inactive)	> 100 µM (inactive)	> 100 µM (inactive)	> 100 µM (inactive)	–	> 100 µM (inactive)	> 100 µM (inactive)	> 100 µM (inactive)	> 100 µM (inactive)	> 100 µM (inactive)	> 100 µM (inactive)	> 100 µM (inactive)	> 100 µM (inactive)	> 100 µM (inactive)	> 100 µM (inactive)	> 100 µM (inactive)
Cc1c(C)n(-c2ccccc2)c2nc(S(C)(=O)=O)nc(S(C)(=O)=O)c12	2.53 µM (inactive)	1.92 µM (inactive)	1.75 µM (inactive)	2.19 µM (inactive)	5.06 µM (inactive)	17.8 µM (inactive)	23.1 µM (inactive)	1.61 µM (inactive)	14.6 µM (inactive)	3.3 µM (inactive)	0.228 µM (active)	1.71 µM (inactive)	1.57 µM (inactive)	14 µM (inactive)	1.82 µM (inactive)	2.07 µM (inactive)	16.8 µM (inactive)	1.28 µM (inactive)	1.6 µM (inactive)
C/C(=C/C(=O)Nc1ccccc1)Nc1onc(C)c1C	> 100 µM (inactive)	> 100 µM (inactive)	> 100 µM (inactive)	> 100 µM (inactive)	–	> 100 µM (inactive)	> 100 µM (inactive)	> 100 µM (inactive)	–	> 100 µM (inactive)	> 100 µM (inactive)	> 100 µM (inactive)	–	> 100 µM (inactive)	> 100 µM (inactive)	> 100 µM (inactive)	> 100 µM (inactive)	–	> 100 µM (inactive)
c1ccc(CSCCC(SCc2ccccc2)SCc2ccccc2)cc1	> 10 µM (inactive)	> 10 µM (inactive)	> 10 µM (inactive)	> 10 µM (inactive)	> 10 µM (inactive)	> 10 µM (inactive)	> 10 µM (inactive)	9.66 µM (inactive)	> 10 µM (inactive)	> 10 µM (inactive)	> 10 µM (inactive)	> 10 µM (inactive)	> 10 µM (inactive)	> 10 µM (inactive)	–	> 10 µM (inactive)	> 10 µM (inactive)	> 10 µM (inactive)	> 10 µM (inactive)
Nc1ncc(Cc2ccc3c(c2)OCO3)c(N)n1	> 100 µM (inactive)	> 100 µM (inactive)	–	> 100 µM (inactive)	> 100 µM (inactive)	> 100 µM (inactive)	> 100 µM (inactive)	53.5 µM (inactive)	> 100 µM (inactive)	> 100 µM (inactive)	> 100 µM (inactive)	> 100 µM (inactive)	> 100 µM (inactive)	> 100 µM (inactive)	> 100 µM (inactive)	–	> 100 µM (inactive)	> 100 µM (inactive)	> 100 µM (inactive)
C[C@]1(O)CC[C@H]2[C@@H]3CCc4cc(O)ccc4[C@H]3CC[C@@]21C	34.8 µM (inactive)	6.7 µM (inactive)	0.991 µM (active)	7.48 µM (inactive)	1.87 µM (inactive)	–	1.99 µM (inactive)	6.95 µM (inactive)	–	92.3 µM (inactive)	0.568 µM (active)	14.5 µM (inactive)	16.6 µM (inactive)	3.46 µM (inactive)	8.02 µM (inactive)	0.773 µM (active)	–	6.38 µM (inactive)	–
CSc1nc2c(ncn2C2OC(CO)C(O)C(O)C2O)c(=O)[nH]1 (stereo not drawn)	> 100 µM (inactive)	> 100 µM (inactive)	> 100 µM (inactive)	> 100 µM (inactive)	–	> 100 µM (inactive)	> 100 µM (inactive)	> 100 µM (inactive)	–	> 100 µM (inactive)	> 100 µM (inactive)	> 100 µM (inactive)	–	> 100 µM (inactive)	> 100 µM (inactive)	> 100 µM (inactive)	> 92.5 µM (inactive)	–	> 100 µM (inactive)
C[C@H]1C[C@H]2[C@@H]3CCC4=CC(=O)C=C[C@]4(C)C3=CC[C@]2(C)[C@@]1(O)C(=O)CO	> 100 µM (inactive)	> 100 µM (inactive)	68.2 µM (inactive)	> 100 µM (inactive)	99.5 µM (inactive)	> 100 µM (inactive)	> 100 µM (inactive)	> 100 µM (inactive)	> 100 µM (inactive)	> 100 µM (inactive)	–	> 100 µM (inactive)	> 100 µM (inactive)	> 100 µM (inactive)	> 100 µM (inactive)	> 100 µM (inactive)	> 100 µM (inactive)	> 100 µM (inactive)	–
COc1cc2c(c(OC)c1OC)-c1ccc(SC)c(=O)cc1[C@@H](NCc1ccc(C#N)cc1)CC2	0.00578 µM (active)	0.00239 µM (active)	0.00278 µM (active)	0.0041 µM (active)	–	0.00449 µM (active)	–	0.0307 µM (active)	–	0.0488 µM (active)	0.00366 µM (active)	0.00521 µM (active)	0.00612 µM (active)	0.00612 µM (active)	0.00736 µM (active)	0.00703 µM (active)	0.004 µM (active)	0.00528 µM (active)	0.00321 µM (active)
CCOc1ccc(NCC(=O)N2CC(=O)Nc3ccccc32)cc1	> 100 µM (inactive)	> 100 µM (inactive)	> 100 µM (inactive)	> 100 µM (inactive)	–	> 100 µM (inactive)	–	> 100 µM (inactive)	–	> 100 µM (inactive)	> 100 µM (inactive)	> 100 µM (inactive)	> 100 µM (inactive)	> 100 µM (inactive)	> 100 µM (inactive)	> 100 µM (inactive)	> 100 µM (inactive)	> 100 µM (inactive)	> 100 µM (inactive)
O=c1[nH]c(=O)n(C2OC(CO)C(O)C2O)c2c1CCCC2 (stereo not drawn)	> 100 µM (inactive)	> 100 µM (inactive)	> 100 µM (inactive)	> 100 µM (inactive)	> 100 µM (inactive)	> 100 µM (inactive)	> 100 µM (inactive)	> 100 µM (inactive)	> 100 µM (inactive)	> 100 µM (inactive)	> 100 µM (inactive)	> 100 µM (inactive)	> 100 µM (inactive)	> 100 µM (inactive)	> 100 µM (inactive)	> 100 µM (inactive)	> 100 µM (inactive)	> 100 µM (inactive)	> 100 µM (inactive)
COc1cccc(N[C@@H]2c3cc4c(cc3C(c3cc(OC)c(O)c(OC)c3)[C@H]3C(=O)OCC32)OCO4)c1 (stereo partly drawn)	2.49 µM (inactive)	0.973 µM (active)	1.21 µM (inactive)	1.22 µM (inactive)	–	0.681 µM (active)	0.348 µM (active)	0.346 µM (active)	–	0.328 µM (active)	0.891 µM (active)	0.558 µM (active)	–	0.681 µM (active)	4.46 µM (inactive)	3.76 µM (inactive)	0.191 µM (active)	–	8.53 µM (inactive)
COc1ccc2c(c1)OCCc1cn[nH]c1-2	> 100 µM (inactive)	34.8 µM (inactive)	29 µM (inactive)	55.6 µM (inactive)	–	38.6 µM (inactive)	35.3 µM (inactive)	15.4 µM (inactive)	–	88.7 µM (inactive)	36.3 µM (inactive)	31.3 µM (inactive)	–	59.4 µM (inactive)	35.7 µM (inactive)	29.4 µM (inactive)	56.6 µM (inactive)	–	29 µM (inactive)
COc1nn(Cc2ccccc2F)c2ccc([N+](=O)[O-])cc12	> 100 µM (inactive)	> 100 µM (inactive)	> 30 µM (inactive)	> 100 µM (inactive)	–	> 100 µM (inactive)	> 100 µM (inactive)	90.6 µM (inactive)	> 100 µM (inactive)	> 100 µM (inactive)	> 100 µM (inactive)	> 100 µM (inactive)	> 100 µM (inactive)	> 100 µM (inactive)	> 100 µM (inactive)	98.9 µM (inactive)	18.9 µM (inactive)	> 100 µM (inactive)	> 100 µM (inactive)
O=C1CC(c2ccc(Cl)cc2)Oc2ccccc21 (stereo not drawn)	85.9 µM (inactive)	8.71 µM (inactive)	–	37.2 µM (inactive)	20.2 µM (inactive)	–	16.1 µM (inactive)	24.7 µM (inactive)	69 µM (inactive)	26.8 µM (inactive)	25.7 µM (inactive)	29.8 µM (inactive)	36.1 µM (inactive)	28.4 µM (inactive)	–	18.8 µM (inactive)	19.6 µM (inactive)	16.3 µM (inactive)	–
